We go through four compounds from patent publication US12161630B2, “Methods to control infection using new generation small molecule growth inhibitors” (priority 2017, dated 2024).

The test system of data set [1] is S. typhimurium cell membrane. The experiment in a line: Leakage of 260 nm-absorbing material after treatment with lethal dose of SMs. It is filed as cell-based. The note with it: 1 hr, compared to 1% DMSO control. The method, then:
To further support the observation obtained with confocal microscopy, the same samples were analyzed using scanning electron microscopy (SEM; FIG. 13P-S). […] Smaller outer membrane vesicles of approximately 20 to 70 nm were also observed covering the surface of the bacteria. […] These conclusions were further supported by measuring the crystal violet uptake and leakage of materials assessed at 260 nm after 1 hr of treatment with a lethal dose of SMs.

The subject of data set [2] is internalized Salmonella in Caco-2, HD11 and THP-1 cells. The experiment in a line: S. typhimurium clearance in infected cell lines, summary over the three cell lines. The note with it: over the three cell lines (Caco-2, HD11, THP-1). In kind it is cell-based. The procedure: Effect of the four SMs on S. typhimurium intracellular survival in cells lines: The ability of four SMs to clear S. typhimurium WT […] was evaluated using three cell lines (Caco-2 cells, HD11, and THP-1 cells). The Salmonella intracellular survival as assessed as described (13). A multiplicity of infection “MOI” of 10 was used. Infected cells were treated with 1 μl of SMs (final concentration ranged between 100 μM and 6.25 μM) at 37° C. for 24 hrs in humidified, 5% CO2 incubator. Following incubation, cells were washed once with 150 μl of 1×PBS, lysed with 0.1% Triton-100X, serial ten-fold diluted in 1×PBS, and plated on agar plate. Plates were incubated at 37° C. for 24 hrs to determine the intracellular survival. Cells not infected and not treated, and cells infected and treated with 2% DMSO were used as controls.

The next data set deals with Salmonella Heidelberg. The experiment in a line: MIC and MBC dose-response, serotype Heidelberg. It is filed as cell-based, Salmonella enterica. The note with it: MIC identical to MBC. The procedure:
An overnight Salmonella suspension was normalized at 0.05 OD600 (approximately 3.5×10^7 CFU/ml) with an adjusted M9 minimal broth medium (12.7 mM Na2HPO4 7H2O; 22 mM KH2PO4; 18.7 mM NH4Cl; 2 mM MgSO4; 0.1 mM CaCl2; 0.4% glucose; 0.05% casamino acids). 100 μL of the suspension plus 2 μl of SMs (200 μM) were transferred into each well of a sterile, non-treated, flat bottom 96-well plate. Bacteria alone (negative control, NC), 2% DMSO plus bacteria (DMSO control), 20 μg/ml chloramphenicol or 50 μg/ml kanamycin plus bacteria (positive controls, PC), and M9 medium only were used as control. Plates were incubated in a Sunrise™ Tecan kinetic microplate reader for 12 hrs at 37° C. and the optical density (OD) was measure at 600 nm as described above. Percentage of inhibition=(OD600 SM−OD600 NC)/(OD600 NC)×100. […] Cultures from wells showing no turbidimetric increase were transferred onto a XLT4 agar plate. Plates were incubated at 37° C. for 36 hrs.
Screens were performed as described in the primary screen. The lowest SM concentration with a static effect was considered as the minimal inhibitory concentration (MIC) and the lowest SM concentration with a cidal effect was considered as the minimal bactericidal concentration (MBC).

The test system of another data set is M. gallisepticum. Nature of the data set: Activity on avian pathogens at 200 μM, M. gallisepticum. In kind it is cell-based, Mycoplasma gallisepticum. The procedure:
FIGS. 1(A-E). Selection of potent Salmonella growth inhibitors. FIG. 1A: High-throughput screening of 4182 SMs against S. typhimurium WT at 200 μM. Negative value: growth inhibition; Positive value: growth stimulation compared to S. typhimurium growth not treated. The black line represents growth inhibition caused by 2% DMSO. FIG. 1B: Activity of 19 S. typhimurium growth inhibitors against additional Salmonella serotypes. Light grey cells: total growth inhibition; dark grey cells: bacterial growth observed; black cells: not determined. FIG. 1C: Dose-response assays of the selected 19 SMs against S. typhimurium WT. […] The black line represents a cut off of nine serotypes killed per SM. FIG. 1E: Activity spectra of the selected four SMs at 200 μM each on several avian-pathogens (Campylobacter jejuni, Escherichia coli APEC, and Mycoplasma gallisepticum) and beneficial gut bacteria (remaining species). E. coli APEC refers to Avian Pathogenic E. coli and includes E. coli O1, O2, O8, O15, O18, O35, O78, O109, and O115. Light grey cells: cidal effect; dark grey cells: bacterial growth observed. Left side: phylogenetic tree based on NCBI taxonomic ID built with PhyloT software.
The selected four SMs were tested on twelve beneficial-commensal gut bacteria at 200 μM (FIG. 1E). […] These four SMs were also growth inhibitors of other avian pathogens at 200 μM (unpublished data, FIG. 1E). […] The antimicrobial activity seemed not to be influenced by the taxonomic classification, however the SM5 bacterial target may be less present in prokaryotes than the drug target of the other three SMs.

Data set [3] deals with twelve beneficial-commensal gut bacteria. Nature of the data set: Activity spectrum on twelve beneficial-commensal gut bacteria at 200 μM. In kind it is cell-based. The method, then:
SM activity spectrum: The 128 selected SMs were tested for antimicrobial effects on nine different serotypes frequently implicated in foodborne gastroenteritis outbreaks. Later in the study, the four best SMs were tested against twelve beneficial/commensal gut bacteria. Both screens were performed at 200 μM as described in the primary screening. Growth conditions for each strain are described in Table 1.

For data set [4], the system named is S. typhimurium cell membrane and nucleic acids. The experiment in a line: Confocal microscopy of SM-challenged S. typhimurium (FM4-64, SYTO9). It is filed as cell-based, Salmonella enterica subsp. Enterica serotype Typhimurium. The note with it: 5×MBC of SMs for 3 hrs; compared to DMSO control. The source says: FIG. 13. Confocal and scanning electron microscopy (SEM) analyses of Salmonella enterica subsp. Enterica serotype Typhimurium after challenge with five times the minimal bactericidal concentration of small molecules (5×MBC of SMs) for 3 hrs. (A-O) Confocal microscopy: (A-E) S. typhimurium cell membrane stained with FM4-64; (F-J) S. typhimurium nucleic acids stained with SYTO9; (K-O) Merged pictures of the FM4-64 and SYTO9 staining. (P-S) SEM: (P) 1% dimethyl sulfoxide (DMSO) treated Salmonella; (Q) SM1 treated Salmonella; (R) SM4 treated Salmonella; (S) SM5 treated Salmonella; Bar: 1 μm.

The subject of the next data set is sheep red blood cells. Nature of the data set: Hemolytic activity in sheep RBCs. In kind it is cell-based. The note with it: 200 μM, one-hour treatment. The method, then:
(§1) Briefly, 200 μl of 10% sheep red blood cells (RBCs; LAMPIRE Biological Laboratories, Pipersville, PA) suspension was incubated with 1 μl of SMs (200 μM) for one hour at 37° C. in a sterile, non-treated, flat bottom plate 96-well. After incubation, the plate was centrifuged at 4000 rpm for 5 min at 4° C., then placed on ice for five min. 100 μL of the supernatant was transferred into a new sterile, treated, flat bottom 96-well plate, and the OD was measured at 540 nm. For this experiment, 2% DMSO (negative control) and 0.1% Triton-100X (positive control) were used. % Hemolysis=(OD540 SM−OD540 DMSO)/(OD540 1× triton−OD540 PBS)×100. Similar experiment was performed with chicken RBCs (OARDC, Ohio).

A further data set has as its system chicken red blood cells. Nature of the data set: Hemolytic activity in chicken RBCs. It is filed as cell-based. The note with it: 200 μM, one-hour treatment. The procedure: as §1

≈ marks a conversion by molar mass, not a printed value.

Turning to `CCCCCCCCCCCCCCCCn1c[n+](C)c2ccccc21.[Br-]` [SM4, 1-hexadecyl-3-methyl-1H-3,1-benzimidazol-3-ium bromide], the “increase in 260 nm-absorbing material” value in data set [1] amounted to 15.95 fold. The “concentration clearing internalized Salmonella” value in data set [2] worked out at 25 µM. Further, the “MIC/MBC” value in the data set on Salmonella Heidelberg worked out at 25 µM. In addition, the “effect against M. gallisepticum” value with M. gallisepticum is “killed”. In data set [3], the “activity on twelve beneficial-commensal gut bacteria” value was “killing all twelve strains tested”. Also, in data set [4], the “FM4-64 cell membrane staining phenotype” value was “No signal was detected”.
Regarding `CCCCCCCCCCCCCCCC[n+]1ccn(CC#N)c1.[Cl-]` [SM3, 1-(cyanomethyl)-3-hexadecyl-1H-imidazol-3-ium chloride], the “increase in 260 nm-absorbing material” value in data set [1] is reported as 7.17 fold. Also, the “concentration clearing internalized Salmonella” value in data set [2] was determined as 50 µM. Also, in the data set with Salmonella Heidelberg, the “MIC/MBC” value was found to be 50 µM. The “effect against M. gallisepticum” value in the data set with M. gallisepticum was “killed”. The “activity on twelve beneficial-commensal gut bacteria” value in data set [3] is recorded as “killing all twelve strains tested”. Besides, the “FM4-64 cell membrane staining phenotype” value in data set [4] is on record as “No signal was detected”.
On to `CC1CCC(C(C)C)C(OC(=O)Cn2c[n+](CC(=O)OC3CC(C)CCC3C(C)C)c3ccccc32)C1.[Cl-]` (centres unmarked) [SM1, 1,3-bis{2-[(2-isopropyl-5-methylcyclohexyl)oxy]-2-oxoethyl}-1H-3,1-benzimidazol-3-ium chloride], for which, in the data set with sheep red blood cells, the “hemolytic activity in sheep RBCs” value was > 50%. Further, the “increase in 260 nm-absorbing material” value in data set [1] was determined as 2.18 fold. Besides, in the data set on Salmonella Heidelberg, the “MIC/MBC” value is 100 µM. In the data set on chicken red blood cells, the “hemolytic activity in chicken RBCs” value is given as > 50%. For the same compound, the “FM4-64 cell membrane staining phenotype” value in data set [4] is given as “No signal was detected”.
Regarding `CCOc1cc(/C=N/N=C(N)N)ccc1OCc1ccc(Cl)cc1` [SM5, N″-{4-[(4-chlorobenzyl)oxy]-3-ethoxybenzylidene}carbonohydrazonic diamide], the “hemolytic activity in sheep RBCs” value in the data set with sheep red blood cells is reported as “lower than 1%”. Further, the “increase in 260 nm-absorbing material” value in data set [1] is listed as 5.25 fold. Further, in the data set on Salmonella Heidelberg, the “MIC/MBC” value is 50 µM (≈ 17.3 µg/mL). Besides, the “effect against M. gallisepticum” value in the data set on M. gallisepticum was “killed”. The “hemolytic activity in chicken RBCs” value in the data set on chicken red blood cells is “lower than 1%”. For the same compound, the “FM4-64 cell membrane staining phenotype” value in data set [4] is on record as “stained cell membrane; however, a bright red spot was detected within every bacterium”.
